Reference: US20070260068A1, “Method for the Preparation of Crystal Forms of Torsemide in a Pure State” (priority 2004, published 2007)

Assays:
[1] = solubility of amorphous torsemide compared with crystalline forms; assay type: physicochemical; conditions: isolated amorphous torsemide vs crystalline forms incl. those of U.S. 5,914,336, Re. 34,672 and WO 00/20395
[2] = stability of the crystal form in an ethanol slurry; assay type: physicochemical
Experimental: (§1) In another embodiment of the present invention, torsemide modification I may be made from torsemide modification II by reslurry in ethanol. By the process of the present invention, torsemide modification II is stirred at room temperature in ethanol for a time sufficient to induce the transformation of torsemide modification II to torsemide modification I. Preferably the mixture is stirred for 2 hours. Torsemide modification I is isolated upon filtering the mixture followed by drying under high vacuum at a temperature of about 40° C. to about 60° C. for a sufficient time to complete drying. Drying is complete upon reaching constant weight. It has been observed that torsemide modification I is stable in an ethanol slurry for at least 65 hours.
as §1, with “dimethyl formamide (DMF).” for “ethanol.”, “methods” for “process”, “DMF” for “ethanol”, “I.” for “I. Preferably the mixture is stirred for 2 hours.”, “It has been observed that torsemide modification I is stable in an ethanol slurry for at least 65 hours.” left out

time stable in an ethanol slurry [2]	Compound	solubility relative to crystalline forms of torsemide [1]
	Cc1cccc(Nc2ccncc2S(=O)(=O)NC(=O)NC(C)C)c1 [amorphous torsemide, 1-Isopropyl-3-[(4-m-toluidino-3-pyridyl)sulfonyl] urea]	more soluble than crystalline forms of torsemide
at least 65 hours	Cc1cccc(Nc2ccncc2S(=O)(=O)NC(=O)NC(C)C)c1 [torsemide modification I, 1-Isopropyl-3-[(4-m-toluidino-3-pyridyl)sulfonyl] urea]	
